Reference: US20050197350A1, “Novel quinoline, tetrahydroquinazoline, and pyrimidine derivatives and methods of treatment related to the use thereof” (TAISHO PHARMACEUTICAL CO., LTD., priority 2003, published 2005)

The molecules below were run on MCH receptors (assay: MCH receptor activity class (method not given)). Conditions: class by percent of control at 10^-7 M or IC50.
With `CN(C)c1nc(N[C@H]2CC[C@@H](NC(=O)Nc3cccc(Cl)c3Cl)CC2)nc2c1CCCC2` [compound 1795] the class was 2 (Class 2: The value of percent of control at 10^−7 M was from 40% to 60% or the value of IC′50 was from 50 nM to 200 nM.).
In the case of `Cc1ccc(NC(=O)N[C@H]2CC[C@@H](Nc3nc4c(c(N(C)C)n3)CCCC4)CC2)cc1` [compound 1796], the class is reported as 2 (Class 2: The value of percent of control at 10^−7 M was from 40% to 60% or the value of IC′50 was from 50 nM to 200 nM.).
`CC(C)c1cccc(C(C)C)c1NC(=O)N[C@H]1CC[C@@H](Nc2nc3c(c(N(C)C)n2)CCCC3)CC1` [compound 1797, N-(2,6-diisopropylphenyl)-N′-(cis-4-{[4-(dimethylamino)-5,6,7,8-tetrahydroquinazolin-2-yl]amino}cyclohexyl)urea] was tested, and the class was 2 (Class 2: The value of percent of control at 10^−7 M was from 40% to 60% or the value of IC′50 was from 50 nM to 200 nM.).
`Cc1ccc([N+](=O)[O-])c(NC(=O)N[C@H]2CC[C@@H](Nc3nc4c(c(N(C)C)n3)CCCC4)CC2)c1C` [compound 1798] was tested, and the class was 3 (Class 3 The value of percent of control at 10^−7 M was more than 60% or the value of IC50 was more than 200 nM.).
With `CN(C)c1nc(N[C@H]2CC[C@@H](NC(=O)Nc3c(Br)cc(F)cc3Br)CC2)nc2c1CCCC2` [compound 1799] the class was 3 (Class 3 The value of percent of control at 10^−7 M was more than 60% or the value of IC50 was more than 200 nM.).
With `CN(C)c1nc(N[C@H]2CC[C@@H](NC(=O)Nc3c(Cl)cccc3Cl)CC2)nc2c1CCCC2` [compound 1800] the class was 3 (Class 3 The value of percent of control at 10^−7 M was more than 60% or the value of IC50 was more than 200 nM.).
For `COc1ccc(C)cc1NC(=O)N[C@H]1CC[C@@H](Nc2nc3c(c(N(C)C)n2)CCCC3)CC1` [compound 1801], the class was 3 (Class 3 The value of percent of control at 10^−7 M was more than 60% or the value of IC50 was more than 200 nM.).
`Cc1cccc([N+](=O)[O-])c1NC(=O)N[C@H]1CC[C@@H](Nc2nc3c(c(N(C)C)n2)CCCC3)CC1` [compound 1802] was tested, and the class was 3 (Class 3 The value of percent of control at 10^−7 M was more than 60% or the value of IC50 was more than 200 nM.).
In the case of `CN(C)c1nc(N[C@H]2CC[C@@H](NC(=O)Nc3ccc(F)c(F)c3)CC2)nc2c1CCCC2` [compound 1803], the class is reported as 3 (Class 3 The value of percent of control at 10^−7 M was more than 60% or the value of IC50 was more than 200 nM.).
For `CN(C)c1nc(N[C@H]2CC[C@@H](NC(=O)Nc3cc(F)cc(F)c3)CC2)nc2c1CCCC2` [compound 1804], the class was 3 (Class 3 The value of percent of control at 10^−7 M was more than 60% or the value of IC50 was more than 200 nM.).
With `CN(C)c1nc(N[C@H]2CC[C@@H](NC(=O)Nc3ccc(F)c(Cl)c3)CC2)nc2c1CCCC2` [compound 1805] the class was 3 (Class 3 The value of percent of control at 10^−7 M was more than 60% or the value of IC50 was more than 200 nM.).
`CC(=O)c1cccc(NC(=O)N[C@H]2CC[C@@H](Nc3nc4c(c(N(C)C)n3)CCCC4)CC2)c1` [compound 1806] was tested, and the class was 3 (Class 3 The value of percent of control at 10^−7 M was more than 60% or the value of IC50 was more than 200 nM.).
With `CC(=O)c1ccc(NC(=O)N[C@H]2CC[C@@H](Nc3nc4c(c(N(C)C)n3)CCCC4)CC2)cc1` [compound 1808] the class was 3 (Class 3 The value of percent of control at 10^−7 M was more than 60% or the value of IC50 was more than 200 nM.).
With `CN(C)c1nc(N[C@H]2CC[C@@H](NC(=O)NC(=O)c3ccccc3)CC2)nc2c1CCCC2` [compound 1809] the class was 3 (Class 3 The value of percent of control at 10^−7 M was more than 60% or the value of IC50 was more than 200 nM.).
In the case of `CN(C)c1nc(N[C@H]2CC[C@@H](NC(=O)NC(C)(C)C)CC2)nc2c1CCCC2` [compound 1810], the class is reported as 3 (Class 3 The value of percent of control at 10^−7 M was more than 60% or the value of IC50 was more than 200 nM.).
For `CN(C)c1nc(N[C@H]2CC[C@@H](NC(=O)Nc3cc(C(F)(F)F)cc(C(F)(F)F)c3)CC2)nc2c1CCCC2` [compound 1811], the class was 3 (Class 3 The value of percent of control at 10^−7 M was more than 60% or the value of IC50 was more than 200 nM.).
For `CN(C)c1nc(N[C@H]2CC[C@@H](NC(=O)NCc3ccccc3)CC2)nc2c1CCCC2` [compound 1812], the class was 3 (Class 3 The value of percent of control at 10^−7 M was more than 60% or the value of IC50 was more than 200 nM.).
For `CN(C)c1nc(N[C@H]2CC[C@@H](NC(=O)Nc3ccc(Br)cc3)CC2)nc2c1CCCC2` [compound 1813], the class was 3 (Class 3 The value of percent of control at 10^−7 M was more than 60% or the value of IC50 was more than 200 nM.).
With `CN(C)c1nc(N[C@H]2CC[C@@H](NC(=O)Nc3cccc(Cl)c3)CC2)nc2c1CCCC2` [compound 1814] the class was 3 (Class 3 The value of percent of control at 10^−7 M was more than 60% or the value of IC50 was more than 200 nM.).
With `CN(C)c1nc(N[C@H]2CC[C@@H](NC(=O)Nc3ccc(Cl)cc3)CC2)nc2c1CCCC2` [compound 1815] the class was 3 (Class 3 The value of percent of control at 10^−7 M was more than 60% or the value of IC50 was more than 200 nM.).
In the case of `CN(C)c1nc(N[C@H]2CC[C@@H](NC(=O)NC3CCCCC3)CC2)nc2c1CCCC2` [compound 1816], the class is reported as 3 (Class 3 The value of percent of control at 10^−7 M was more than 60% or the value of IC50 was more than 200 nM.).
In the case of `CN(C)c1nc(N[C@H]2CC[C@@H](NC(=O)Nc3cccc(C#N)c3)CC2)nc2c1CCCC2` [compound 1817], the class is reported as 3 (Class 3 The value of percent of control at 10^−7 M was more than 60% or the value of IC50 was more than 200 nM.).
For `CN(C)c1nc(N[C@H]2CC[C@@H](NC(=O)Nc3ccc(Cl)c(Cl)c3)CC2)nc2c1CCCC2` [compound 1818], the class was 3 (Class 3 The value of percent of control at 10^−7 M was more than 60% or the value of IC50 was more than 200 nM.).
With `CN(C)c1nc(N[C@H]2CC[C@@H](NC(=O)Nc3ccc(Cl)cc3Cl)CC2)nc2c1CCCC2` [compound 1819] the class was 3 (Class 3 The value of percent of control at 10^−7 M was more than 60% or the value of IC50 was more than 200 nM.).
For `CN(C)c1nc(N[C@H]2CC[C@@H](NC(=O)Nc3c(F)cccc3F)CC2)nc2c1CCCC2` [compound 1820], the class was 3 (Class 3 The value of percent of control at 10^−7 M was more than 60% or the value of IC50 was more than 200 nM.).
With `CN(C)c1nc(N[C@H]2CC[C@@H](NC(=O)Nc3cc(Cl)ccc3Cl)CC2)nc2c1CCCC2` [compound 1821] the class was 3 (Class 3 The value of percent of control at 10^−7 M was more than 60% or the value of IC50 was more than 200 nM.).
With `CCOC(=O)CNC(=O)N[C@H]1CC[C@@H](Nc2nc3c(c(N(C)C)n2)CCCC3)CC1` [compound 1822] the class was 3 (Class 3 The value of percent of control at 10^−7 M was more than 60% or the value of IC50 was more than 200 nM.).
With `CCOC(=O)c1ccc(NC(=O)N[C@H]2CC[C@@H](Nc3nc4c(c(N(C)C)n3)CCCC4)CC2)cc1` [compound 1823] the class was 3 (Class 3 The value of percent of control at 10^−7 M was more than 60% or the value of IC50 was more than 200 nM.).
`CCc1ccc(NC(=O)N[C@H]2CC[C@@H](Nc3nc4c(c(N(C)C)n3)CCCC4)CC2)cc1` [compound 1824] was tested, and the class was 3 (Class 3 The value of percent of control at 10^−7 M was more than 60% or the value of IC50 was more than 200 nM.).
For `CCNC(=O)N[C@H]1CC[C@@H](Nc2nc3c(c(N(C)C)n2)CCCC3)CC1` [compound 1825], the class was 3 (Class 3 The value of percent of control at 10^−7 M was more than 60% or the value of IC50 was more than 200 nM.).
`CN(C)c1nc(N[C@H]2CC[C@@H](NC(=O)Nc3ccc(F)c([N+](=O)[O-])c3)CC2)nc2c1CCCC2` [compound 1826] was tested, and the class was 3 (Class 3 The value of percent of control at 10^−7 M was more than 60% or the value of IC50 was more than 200 nM.).
With `CN(C)c1nc(N[C@H]2CC[C@@H](NC(=O)Nc3cccc(F)c3)CC2)nc2c1CCCC2` [compound 1827] the class was 3 (Class 3 The value of percent of control at 10^−7 M was more than 60% or the value of IC50 was more than 200 nM.).
With `CN(C)c1nc(N[C@H]2CC[C@@H](NC(=O)Nc3ccccc3F)CC2)nc2c1CCCC2` [compound 1828] the class was 3 (Class 3 The value of percent of control at 10^−7 M was more than 60% or the value of IC50 was more than 200 nM.).
In the case of `CC(C)c1ccc(NC(=O)N[C@H]2CC[C@@H](Nc3nc4c(c(N(C)C)n3)CCCC4)CC2)cc1` [compound 1829], the class is reported as 3 (Class 3 The value of percent of control at 10^−7 M was more than 60% or the value of IC50 was more than 200 nM.).
`CC(C)NC(=O)N[C@H]1CC[C@@H](Nc2nc3c(c(N(C)C)n2)CCCC3)CC1` [compound 1830] was tested, and the class was 3 (Class 3 The value of percent of control at 10^−7 M was more than 60% or the value of IC50 was more than 200 nM.).
With `COc1ccc(NC(=O)N[C@H]2CC[C@@H](Nc3nc4c(c(N(C)C)n3)CCCC4)CC2)cc1` [compound 1831] the class was 3 (Class 3 The value of percent of control at 10^−7 M was more than 60% or the value of IC50 was more than 200 nM.).
For `Cc1ccc(NC(=O)N[C@H]2CC[C@@H](Nc3nc4c(c(N(C)C)n3)CCCC4)CC2)c([N+](=O)[O-])c1` [compound 1832], the class was 3 (Class 3 The value of percent of control at 10^−7 M was more than 60% or the value of IC50 was more than 200 nM.).
In the case of `COc1ccccc1NC(=O)N[C@H]1CC[C@@H](Nc2nc3c(c(N(C)C)n2)CCCC3)CC1` [compound 1833], the class is reported as 3 (Class 3 The value of percent of control at 10^−7 M was more than 60% or the value of IC50 was more than 200 nM.).
For `COc1cccc(NC(=O)N[C@H]2CC[C@@H](Nc3nc4c(c(N(C)C)n3)CCCC4)CC2)c1` [compound 1834], the class was 3 (Class 3 The value of percent of control at 10^−7 M was more than 60% or the value of IC50 was more than 200 nM.).
For `COc1ccc(CNC(=O)N[C@H]2CC[C@@H](Nc3nc4c(c(N(C)C)n3)CCCC4)CC2)cc1` [compound 1835], the class was 3 (Class 3 The value of percent of control at 10^−7 M was more than 60% or the value of IC50 was more than 200 nM.).
`Cc1cccc(CNC(=O)N[C@H]2CC[C@@H](Nc3nc4c(c(N(C)C)n3)CCCC4)CC2)c1` [compound 1836] was tested, and the class was 3 (Class 3 The value of percent of control at 10^−7 M was more than 60% or the value of IC50 was more than 200 nM.).
With `CCCNC(=O)N[C@H]1CC[C@@H](Nc2nc3c(c(N(C)C)n2)CCCC3)CC1` [compound 1837] the class was 3 (Class 3 The value of percent of control at 10^−7 M was more than 60% or the value of IC50 was more than 200 nM.).
